From patent US8846704B2, “Thiopyrimidine-based compounds and uses thereof” (YM Biosciences Austraila Pty Ltd, priority 2007, dated 2014) come the findings set out here.

SMILES strings stand for the structures. A value given as a limit tells only on which side of the number the result lay.

One test addresses T1, human JAK3 (Homo sapiens, UniProt P52333).
T1 construct: The kinase domain of human JAK3 was amplified; GST (N); made in house; host or cells: Sf9 insect cells (baculovirus)
Briefly: Alphascreen tyrosine kinase enzyme assay, JAK3 kinase domain. The test is classed as biochemical. The note with it: read-out: JAK3 IC50_nM. In a few lines:
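GST-affinity-purified human JAK3 kinase domain (baculovirus/Sf9) was pre-incubated 20 min with compound ([…]) in HEPES pH 7.5 buffer with MgCl2, vanadate and Tween 20. Biotinylated peptide substrate ([…]) and ATP were then added; phosphotyrosine was detected by AlphaScreen PY100 acceptor and streptavidin donor beads after 2–3 h.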
A general note: Alpha assays give light when donor and acceptor beads are brought close together.

A further test has as its system BaF3 wild-type cells. The test is described as follows: Cellular screening, BaF3 wild-type cells, Alamar Blue. To be noted: Mus musculus, 40 hr, read-out: BAF3wt IC50_nM. The test is classed as cell-based. In short, it runs like this:
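Compounds, screened from dilution plates at 20 μM, were added as 10× final stocks to cells grown in DMEM/10% FCS/10% WEHI 3B conditioned medium. Cells were seeded at 1.1× final (50,000–200,000 cells/mL) and incubated 40 hr at 37° C, 5% CO2. Viability was read at 544 nm after a further 4–6 hours with Alamar Blue.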

T1 sequence (P52333 822-1111 limits assumed): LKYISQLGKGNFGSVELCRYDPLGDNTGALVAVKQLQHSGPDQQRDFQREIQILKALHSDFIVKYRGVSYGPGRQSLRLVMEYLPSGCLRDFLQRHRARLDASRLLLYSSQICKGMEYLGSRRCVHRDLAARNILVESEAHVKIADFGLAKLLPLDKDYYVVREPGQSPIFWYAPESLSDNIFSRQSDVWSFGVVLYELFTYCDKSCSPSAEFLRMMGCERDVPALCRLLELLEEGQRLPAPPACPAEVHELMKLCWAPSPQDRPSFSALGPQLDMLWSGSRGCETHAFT

In the case of `C=CC(=O)Nc1ccc(Sc2ccnc(Nc3ccc(N4CCOCC4)cc3)n2)c(Cl)c1C` [Compound 161, N-(3-chloro-2-methyl-4-(2-(4-morpholinophenylao)pyrimidin-4-ylthio)phenyl)acrylamide], the results for the IC50 on human JAK3 and in the test on BaF3 wild-type cells were less than 100 nM and greater than 20000 nM, respectively.
In the same order, the values of `C=CC(=O)Nc1cc(C)c(Sc2nc(Nc3ccc(N4CCOCC4)cc3)ncc2C)c(C)c1` [Compound 164, N-(3,5-dimethyl-4-(5-methyl-2-(4-morpholinophenylao)pyrimidin-4-ylthio)phenyl)acrylamide] are less than 100 nM and greater than 20000 nM.
For `Cc1cnc(Nc2ccc(N3CCOCC3)cc2)nc1Sc1ccc2c(c1)CCCN2` [Compound 166, 5-methyl-N-(4-morpholinophenyl)-4-(1,2,3,4-tetrahydroquinolin-6-ylthio)pyrimidin-2-ae] the same measures were less than 500 nM and less than 20000 nM.
For `C=CC(=O)Nc1ccc(Sc2nc(Nc3ccc(N4CCOCC4)cc3)ncc2C)c(Cl)c1C` [Compound 171, N-(3-chloro-2-methyl-4-(5-methyl-2-(4-morpholinophenylao)pyrimidin-4-ylthio)phenyl)acrylamide] the same measures were less than 100 nM and greater than 20000 nM.
Turning to `CSc1nc(Nc2ccc(N3CCOCC3)cc2)ncc1C` [Compound 176, 5-methyl-4-(methylthio)-N-(4-morpholinophenyl)pyrimidin-2-ae], the IC50 on human JAK3 is less than 1000 nM; with BaF3 wild-type cells, less than 5000 nM.
Take `Cc1cnc(Nc2ccc(N3CCOCC3)cc2)nc1Sc1ccc(NC(=O)COCC(=O)O)cc1` [Compound 188, 2-(2-(4-(5-methyl-2-(4-morpholinophenylao)pyrimidin-4-ylthio)phenylao)-2-oxoethoxy)acetic acid]: the IC50 is less than 100 nM at human JAK3 and greater than 20000 nM with BaF3 wild-type cells.
For `COC(=O)COCC(=O)Nc1ccc(Sc2nc(Nc3ccc(N4CCOCC4)cc3)ncc2C)cc1` [Compound 189, methyl 2-(2-(4-(5-methyl-2-(4-morpholinophenylao)pyrimidin-4-ylthio)phenylao)-2-oxoethoxy)acetate] the same measures were less than 500 nM and less than 20000 nM.
In the same order, the values of `C=CC(=O)Nc1ccc(Sc2ccnc(Nc3ccccc3O)n2)cc1` [Compound 279, N-(4-(2-(2-hydroxyphenylao)pyrimidin-4-ylthio)phenyl)acrylamide] are less than 100 nM and less than 20000 nM.
In the same order, the values of `C=CC(=O)Nc1ccc(Sc2nc(Nc3cccc(O)c3)ncc2C)cc1` [Compound 281, N-(4-(2-(3-hydroxyphenylao)-5-methylpyrimidin-4-ylthio)phenyl)acrylamide] are less than 100 nM and less than 20000 nM.
Regarding `C=CC(=O)Nc1ccc(Sc2nc(Nc3ccc(O)cc3)ncc2C)cc1` [Compound 282, N-(4-(2-(4-hydroxyphenylao)-5-methylpyrimidin-4-ylthio)phenyl)acrylamide], the figures for the IC50 at human JAK3 and in the test on BaF3 wild-type cells were less than 100 nM and less than 20000 nM, respectively.
For `C=CC(=O)Nc1ccc(Sc2nc(Nc3ccc(OC)c(O)c3)ncc2C)cc1` [Compound 283, N-(4-(2-(3-hydroxy-4-methoxyphenylao)-5-methylpyrimidin-4-ylthio)phenyl)acrylamide] the same measures were less than 100 nM and less than 20000 nM.
For `C=CC(=O)Nc1ccc(Sc2nc(Nc3ccc4c(c3)OCO4)ncc2C)cc1` [Compound 284, N-(4-(2-(benzo[d][1,3]dioxol-5-ylao)-5-methylpyrimidin-4-ylthio)phenyl)acrylamide] the same measures were less than 100 nM and less than 20000 nM.
Turning to `C=CC(=O)Nc1ccc(Sc2nc(Nc3cccc(OC(F)(F)F)c3)ncc2C)cc1` [Compound 289, N-(4-(5-methyl-2-(3-(trifluoromethoxy)phenylao)pyrimidin-4-ylthio)phenyl)acrylamide], the IC50 on human JAK3 is less than 100 nM; with BaF3 wild-type cells it was greater than 20000 nM.
As for `C=CC(=O)Nc1ccc(Sc2nc(Nc3ccc(N4CCC(C(=O)OCC)CC4)cc3)ncc2C)cc1` [Compound 292, ethyl 1-(4-(4-(4-acrylamidophenylthio)-5-methylpyrimidin-2-ylao)phenyl)piperidine-4-carboxylate], the IC50 is less than 100 nM at human JAK3 and greater than 20000 nM in the test on BaF3 wild-type cells.
As to `C=CC(=O)Nc1ccc(Sc2nc(Nc3ccc(CNS(C)(=O)=O)cc3)ncc2C)cc1` [Compound 294, N-(4-(5-methyl-2-(4-(methylsulfonamidomethyl)phenylao)pyrimidin-4-ylthio)phenyl)acrylamide], the IC50 is less than 100 nM on human JAK3 and greater than 20000 nM in the test on BaF3 wild-type cells.
In the same order, the values of `C=CC(=O)Nc1ccc(Sc2nc(Nc3ccc(N4CCS(=O)(=O)CC4)cc3)ncc2C)cc1` [Compound 298, N-{4-[(2-{[4-(1,1-dioxo-1λ^6,4-thiomorpholin-4-yl)phenyl]ao}-5-methylpyrimidin-4-yl)sulfanyl]phenyl}prop-2-enamide] are less than 100 nM and less than 20000 nM.
In the same order, the values of `C=CC(=O)Nc1ccc(Sc2nc(Nc3cccc(OCCCO)c3)ncc2C)cc1` [Compound 301, N-(4-(2-(3-(3-hydroxypropoxy)phenylao)-5-methylpyrimidin-4-ylthio)phenyl)acrylamide] are less than 100 nM and less than 20000 nM.
For the compound `C=CC(=O)Nc1ccc(Sc2nc(Nc3ccc(N4CCOCC4)cc3)ncc2-c2ccccc2)cc1` [Compound 307, N-(4-(2-(4-morpholinophenylao)-5-phenylpyrimidin-4-ylthio)phenyl)acrylamide], the figures for the IC50 on human JAK3 and with BaF3 wild-type cells were less than 100 nM and greater than 20000 nM, respectively.
For `Nc1ccc(Sc2nc(Nc3ccc(N4CCOCC4)cc3)ncc2I)cc1` [Compound 309, 4-(4-aophenylthio)-5-iodo-N-(4-morpholinophenyl)pyrimidin-2-ae], the IC50 was less than 500 nM on human JAK3 and less than 5000 nM in the test on BaF3 wild-type cells.
Turning to `C=CC(=O)Nc1ccc(Sc2nc(Nc3ccc(N4CCOCC4)cc3)ncc2I)cc1` [Compound 313, N-(4-(5-iodo-2-(4-morpholinophenylao)pyrimidin-4-ylthio)phenyl)acrylamide], the IC50 was less than 100 nM on human JAK3 and greater than 20000 nM in the test with BaF3 wild-type cells.
For `C=CC(=O)Nc1ccc(Sc2nc(Nc3ccc(N4CCOCC4)cc3)ncc2Cl)cc1` [Compound 315, N-(4-(5-chloro-2-(4-morpholinophenylao)pyrimidin-4-ylthio)phenyl)acrylmide] the same measures were less than 100 nM and greater than 20000 nM.
In the same order, the values of `Nc1ccc(Sc2nc(Nc3ccc(N4CCOCC4)cc3)ncc2Cl)cc1` [Compound 318, 4-(4-aophenylthio)-5-chloro-N-(4-morpholinophenyl)pyrimidin-2-ae] are less than 100 nM and less than 20000 nM.
In the same order, the values of `C=C(CN1CCOCC1)C(=O)Nc1cccc(Sc2ccnc(Nc3ccc(N4CCOCC4)cc3)n2)c1` [Compound 328, 2-(morpholinomethyl)-N-(3-(2-(4-morpholinophenylao)pyrimidin-4-ylthio)phenyl)acrylamide] are less than 100 nM and less than 5000 nM.
Consider `O=C(CCl)Nc1cccc(Sc2ccnc(Nc3ccc(N4CCOCC4)cc3)n2)c1` [Compound 332, 2-chloro-N-(3-(2-(4-morpholinophenylao)pyrimidin-4-ylthio)phenyl)acetamide], for which the IC50 at human JAK3 is less than 100 nM; in the test on BaF3 wild-type cells, less than 5000 nM.
On to `O=C(/C=C/Cl)Nc1ccc(Sc2ccnc(Nc3ccc(N4CCOCC4)cc3)n2)cc1` [Compound 342, (E)-3-chloro-N-(4-(2-(4-morpholinophenylao)pyrimidin-4-ylthio)phenyl)acrylamide], for which the figures for the IC50 at human JAK3 and in the test on BaF3 wild-type cells were less than 100 nM and greater than 20000 nM, respectively.
In the same order, the values of `Cc1cnc(Nc2ccc(N3CCOCC3)cc2)nc1Sc1ccc(NC(=O)/C=C/Cl)cc1` [Compound 343, (E)-3-chloro-N-(4-(5-methyl-2-(4-morpholinophenylao)pyrimidin-4-ylthio)phenyl)acrylamide] are less than 100 nM and less than 20000 nM.
With `CCC(=O)Nc1ccc(Sc2nc(Nc3ccc(N4CCOCC4)cc3)ncc2Cl)cc1` [Compound 347, N-(4-(5-chloro-2-(4-morpholinophenylao)pyrimidin-4-ylthio)phenyl)propionamide], the values for the IC50 at human JAK3 and in the test on BaF3 wild-type cells were less than 100 nM and greater than 20000 nM, respectively.
In the same order, the values of `C=CC(=O)Nc1ccc(Sc2ccnc(Nc3ccccc3)n2)cc1` [Compound 350, N-(4-(2-(phenylao)pyrimidin-4-ylthio)phenyl)acrylamide] are less than 100 nM and greater than 20000 nM.
For `C=CC(=O)Nc1ccc(Sc2ccnc(Nc3ccc(S(N)(=O)=O)cc3)n2)cc1` [Compound 352, N-(4-(2-(4-sulfamoylphenylao)pyrimidin-4-ylthio)phenyl)acrylamide] the same measures were less than 100 nM and greater than 20000 nM.
For `C=CC(=O)Nc1ccc(Sc2ccnc(Nc3ccc(Cl)cc3)n2)cc1` [Compound 353, N-(4-(2-(4-chlorophenylao)pyrimidin-4-ylthio)phenyl)acrylamide] the same measures were less than 100 nM and greater than 20000 nM.
For the compound `C=CC(=O)Nc1ccc(Sc2ccnc(Nc3ccc(F)c(C#N)c3)n2)cc1` [Compound 354, N-(4-(2-(3-cyano-4-fluorophenylao)pyrimidin-4-ylthio)phenyl)acrylamide], the IC50 is less than 100 nM on human JAK3 and less than 20000 nM with BaF3 wild-type cells.
For `C=CC(=O)Nc1ccc(Sc2ccnc(Nc3cccc(N4CCCC4)c3)n2)cc1` [Compound 355, N-(4-(2-(3-(pyrrolidin-1-yl)phenylao)pyrimidin-4-ylthio)phenyl)acrylamide] the same measures were less than 100 nM and less than 20000 nM.
